Legend:
Test in all cases: relative viability (nuclei count vs DMSO), 5 days (fraction); higher = more cells survive
QS11 + Pemetrexed = compound: C1CC2=C(C1)C=C(C=C2)OC3=NC(=C4C(=N3)N(C=N4)CC5=CC=C(C=C5)C6=CC=CC=C6)N[C@@H](CC7=CC=CC=C7)CO [QS11] + Nc1nc2[nH]cc(CCc3ccc(C(=O)N[C@@H](CCC(=O)O)C(=O)O)cc3)c2c(=O)[nH]1 [Pemetrexed] (partner 0.2 µM)
Summary of the method: (§1)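 Lung cancer cell lines in 1536-well plates got either a single drug or a fixed anchor-drug dose together with five library-drug doses (not always all listed) in √10 steps, by pin tool, on the day after seeding. Nuclei were counted after 5 days, and relative viability is the treated-to-vehicle ratio of nuclei counts. Values are medians of duplicate plates.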

AZ628 + Foretinib = compound: CC1=C(C=C(C=C1)NC(=O)C2=CC(=CC=C2)C(C)(C)C#N)NC3=CC4=C(C=C3)N=CN(C4=O)C [AZ628] + COc1cc2c(Oc3ccc(NC(=O)C4(C(=O)Nc5ccc(F)cc5)CC4)cc3F)ccnc2cc1OCCCN1CCOCC1 [Foretinib] (partner 0.25 µM)
Summary of the method: as §1

AZ628 + Pictilisib = compound: CC1=C(C=C(C=C1)NC(=O)C2=CC(=CC=C2)C(C)(C)C#N)NC3=CC4=C(C=C3)N=CN(C4=O)C [AZ628] + CS(=O)(=O)N1CCN(Cc2cc3nc(-c4cccc5[nH]ncc45)nc(N4CCOCC4)c3s2)CC1 [Pictilisib] (partner 1 µM)
Summary of the method: as §1

Darinaparsin + Alpelisib = compound: C[As](C)SC[C@H](NC(=O)CC[C@H](N)C(=O)O)C(=O)NCC(=O)O [Darinaparsin] + Cc1nc(NC(=O)N2CCC[C@H]2C(N)=O)sc1-c1ccnc(C(C)(C)C(F)(F)F)c1 [Alpelisib] (partner 2 µM)
Summary of the method: as §1

Cell Line	relative viability (QS11 + Pemetrexed; first compound 0.08 µM)	relative viability (QS11 + Pemetrexed; first compound 0.253 µM)	relative viability (QS11 + Pemetrexed; first compound 0.8 µM)	relative viability (QS11 + Pemetrexed; first compound 2.53 µM)	relative viability (QS11 + Pemetrexed; first compound 8 µM)	relative viability (AZ628 + Foretinib; first compound 0.08 µM)	relative viability (AZ628 + Foretinib; first compound 0.253 µM)	relative viability (AZ628 + Foretinib; first compound 0.8 µM)	relative viability (AZ628 + Foretinib; first compound 2.53 µM)	relative viability (AZ628 + Foretinib; first compound 8 µM)	relative viability (AZ628 + Pictilisib; first compound 0.08 µM)	relative viability (AZ628 + Pictilisib; first compound 0.253 µM)	relative viability (AZ628 + Pictilisib; first compound 0.8 µM)	relative viability (AZ628 + Pictilisib; first compound 2.53 µM)	relative viability (AZ628 + Pictilisib; first compound 8 µM)	relative viability (Darinaparsin + Alpelisib; first compound 0.08 µM)	relative viability (Darinaparsin + Alpelisib; first compound 0.8 µM)	relative viability (Darinaparsin + Alpelisib; first compound 2.53 µM)	relative viability (Darinaparsin + Alpelisib; first compound 8 µM)
NCI-H2023	0.293	0.276	0.241	0.197	0.194	0.886	0.824	0.826	0.724	0.607	0.218	0.23	0.236	0.196	0.202	0.658	0.601	0.536	0.603
NCI-H2085	0.879	0.841	0.925	1.04	1.01	0.994	1.17	1.07	1.09	0.676	0.506	0.413	0.408	0.386	0.378	1.07	1	1.03	0.957
NCI-H2087	0.646	0.646	0.675	0.692	0.757	0.839	0.821	0.727	0.78	0.256	0.617	0.35	0.325	0.341	0.291	1.15	0.988	1.13	1.18
NCI-H2126	0.623	0.681	0.604	0.565	0.59	1.27	1.18	1.22	0.922	0.94	0.533	0.549	0.537	0.513	0.457	0.803	0.737	0.616	0.804
NCI-H2170	0.271	0.288	0.243	0.274	0.287	0.992	1.07	1.03	1.07	0.913	0.386	0.305	0.354	0.337	0.275	0.927	0.759	0.629	1.13
NCI-H2228	0.342	0.337	0.324	0.374	0.372	0.72	0.806	0.811	0.722	0.532	0.397	0.32	0.368	0.329	0.264	1.03	0.992	0.735	0.933
NCI-H2347	0.455	0.426	0.396	0.458	0.446	0.697	0.81	0.704	0.976	0.407	0.321	0.437	0.312	0.32	0.287	1.21	1.09	1.04	1.09
NCI-H2405	1.01	1.02	0.974	1.05	1.05	0.637	0.857	0.673	0.757	0.539	0.222	0.249	0.256	0.255	0.257	0.735	0.734	0.693	0.755
NCI-H3122	0.2	0.214	–	0.25	0.296	0.787	0.625	0.499	0.613	0.233	0.286	0.218	0.214	0.214	0.234	0.9	0.796	0.735	1.01
PC-3 [JPC-3]	–	0.951	1.08	0.935	1.17	1.01	1.07	1.05	1.03	0.92	0.767	0.835	0.861	0.814	0.525	1.02	0.982	0.992	1.11
PC-14	–	0.145	0.14	0.178	0.155	0.95	0.916	0.949	0.945	0.765	0.617	0.627	0.738	0.808	0.237	0.858	1.02	0.742	1.2
RERF-LC-KJ	0.51	0.461	0.443	0.482	0.439	0.885	0.922	0.898	0.899	0.893	0.573	0.633	0.612	0.513	0.487	0.865	0.917	0.73	0.873
SK-LU-1	0.993	1.07	0.913	0.835	0.781	–	0.75	0.685	0.628	0.589	0.429	0.375	0.534	0.467	0.373	1.11	0.956	0.797	1.06
SK-MES-1	1.08	0.94	0.832	0.977	0.863	0.837	0.894	0.801	0.771	0.846	0.337	0.372	0.28	0.327	0.329	1.01	0.909	0.63	0.993
SW 1573	0.811	0.926	0.792	0.418	0.539	0.858	0.858	0.664	0.7	0.517	0.44	0.34	0.367	0.335	0.27	0.744	0.729	0.472	0.832
UMC-11	0.87	0.89	0.716	0.97	0.993	1.13	0.916	0.951	1	1.19	0.976	0.805	0.845	0.752	0.76	0.861	0.981	0.683	1.15
